Measured values published in US11767520B2, “Compositions and methods for treating lung inflammation” (aTyr Pharma, Inc., priority 2017, dated 2023).

How the values were obtained:
[1] = test system: bleomycin-induced lung inflammation; assay: Histological inflammatory cell infiltrate and type II pneumocyte hyperplasia scores, BLM rat model (Example 2); format: in vivo, rat (male Sprague Dawley); details: BLM-induced rats, Day 22; Nintedanib PO; Test Article = HRS^FC1 1 mg/kg on Days 2, 9 and 16; FIG. 5
Procedure: The five lung lobes were collected and weighed. The right lung lobes were inflated and fixed in 10% neutral buffered formalin and embedded in paraffin for histological analysis. An approximately 50 mg piece of the left lung lobe was snap frozen and stored at −80° C. for potential RNA analysis. The remainder of the lobe was also snap frozen until analyzed for collagen content.
Sections for histology were stained using picrosirius red and were scored in a blinded fashion (1 score for each of the 4 lobes) by a veterinary pathologist using a modified Ashcroft score (Hubner et al., 2008). Hydroxyproline content was determined in the left lung lobe using a mass spectrometry method.
Slides were read by a veterinary pathologist and each of the 4 lobes evaluated was assigned 4 scores [Ashcroft for fibrosis (scores range from 0 to 8), perivascular/peribronchiolar inflammatory cell infiltrate (scores range from 0 to 5), interstitial/alveolar inflammatory cell infiltrate (scores range from 0 to 5), type II pneumocyte hyperplasia (scores range from 0 to 5)].

[2] = Body weight, BLM rat model (Example 2); format: in vivo, rat (male Sprague Dawley); details: BLM-induced rats; Nintedanib 60 mg/kg PO daily; Test Article = HRS^FC1 0.1-3 mg/kg IV weekly
Procedure: (§1) PBS or BLM was administered under isoflurane anesthesia.
(§2) In-life, body weights were measured and clinical observations were conducted daily. On Day 8 and Day 15, animals were removed from their home cages and placed individually into whole body plethysmography chambers. After a 20-minute acclimatization phase, respiratory parameters were recorded for 10 minutes.

[3] = test system: bleomycin-induced respiratory impairment; assay: Respiratory measurements by whole body plethysmography, BLM rat model (Example 2, Table E4); format: in vivo, rat (male Sprague Dawley); details: for Expiratory Time / Inspiratory Time / Peak Expiratory Flow / Peak Inspiratory Flow / Tidal Volume / Respiratory Rate / Respiratory Minute Volume: Ninte. 60 mg/kg PO daily from Day 1, mean; for Respiratory Rate: in breaths/min (unit assumed); for Respiratory Minute Volume: in mL/min (unit assumed)
Procedure: as §1, §2

[4] = test system: bleomycin-induced respiratory impairment; assay: Respiratory measurements by whole body plethysmography, BLM rat model, combination study (Example 3, Table E6); format: in vivo, rat (male Sprague Dawley); parameters: Tidal Volume: unit not given here; details: for Expiratory Time / Inspiratory Time / Peak Expiratory Flow / Peak Inspiratory Flow / Tidal Volume / Respiratory Rate / Respiratory Minute Volume: mean; for Respiratory Rate: in breaths/min (unit assumed); for Respiratory Minute Volume: in mL/min (unit assumed)
Procedure: PBS or BLM was administered under isoflurane anesthesia. Excess rats were induced with BLM and used to replace any animals with excessive body weight loss.
All treatments commenced on Day 9.
as §2, with “Days 8, 15” for “Day 8”, “21,” for “Day 15,”, “minutes. Pre-study and on Days 10 and Day 17, whole blood was obtained from the tail vein and processed to serum for measurement of HRS^FC1.” for “minutes.”

[5] = test system: bleomycin-induced lung fibrosis; assay: Survival, BLM-induced lung fibrosis mouse model (Example 1, Table E2); format: in vivo, mouse (male C57Bl/6J); details: for Survival (number of animals surviving to study day): Ninte. 60 mg/kg PO, BLM mice, 12 at start
Procedure: Lung inflammation and fibrosis were induced in male C57Bl/6J mice by oropharyngeal administration of BLM. After the habituation phase mice were randomized based on body weight over the different groups. Under isoflurane anesthesia, 50 μl PBS or BLM was dripped onto the vocal cords facilitating aspiration. Mice were sacrificed at day 21 using a terminal bleed under isoflurane anesthesia.
Daily oral treatments commenced on Day 0, while daily IV treatments commenced on Day 8. Dosing was planned to continue until the day of termination (Day 21), however, due to high mortality in IV treated groups (see results), IV dosing was skipped on Day 19 and Day 20. […] Subsequently, the mice received 8% D20 (Kinemed, Emeryville) drinking water until sacrifice to maintain labeling of newly formed collagen. Body weight was monitored three times a week.
The study commenced with 7 animals in the non-diseased control group and 12 animals in the BLM-induced groups. Survival is show in Table E2 below.

[6] = Day 8 (prior to any treatments), Ninte. PO + Vehicle IV group

SMILES: COC(=O)c1ccc2c(c1)NC(=O)/C2=C(\Nc1ccc(N(C)C(=O)CN2CCN(C)CC2)cc1)c1ccccc1 [Nintedanib, nintedanib]
- Interstitial/alveolar inflammatory cell infiltrate score [1]: no effect on interstitial inflammatory cell infiltrate
- Body weight curves vs respective controls [2]: None of the groups treated with Nintedanib or Test Article had body weight curves that significantly differed
- BLM-induced alterations in respiratory parameters ([3]; BLM-induced rats, Day 15, Nintedanib 60 mg/kg PO, Test Article = HRS^FC1 IV weekly): did not significantly impact
- Respiratory minute volume (RMV) ([3]; BLM-induced rats, Day 15, Nintedanib PO, Test Article = HRS^FC1 0.1-3 mg/kg from Day 9 or Day 2, FIG. 3): no impact on RMV
- Expiratory Time ([3]; Day 8): 0.12 s
- Inspiratory Time ([3]; Day 8): 0.09 s
- Peak Expiratory Flow ([3]; Day 8): 28.4
- Peak Inspiratory Flow ([3]; Day 8): 26.7
- Tidal Volume ([3]; Day 8): 1.5 mL
- Respiratory Rate ([3]; Day 8): 313.0
- Respiratory Minute Volume ([3]; Day 8): 477.5
- Expiratory Time ([3]; Day 15): 0.12 s
- Inspiratory Time ([3]; Day 15): 0.09 s
- Peak Expiratory Flow ([3]; Day 15): 28.8
- Peak Inspiratory Flow ([3]; Day 15): 29.0
- Tidal Volume ([3]; Day 15): 1.6 mL
- Respiratory Rate ([3]; Day 15): 317.3
- Respiratory Minute Volume ([3]; Day 15): 534.6
- BLM-induced alterations in respiratory parameters ([4]; BLM-induced rats, Day 15 and Day 21, Nintedanib, Pirfenidone or Test Article (HRS^FC1)): did not significantly impact
- Expiratory Time [4, 6]: 0.151 s
- Inspiratory Time [4, 6]: 0.115 s
- Peak Expiratory Flow [4, 6]: 18.4
- Peak Inspiratory Flow [4, 6]: 17.2
- Tidal Volume [4, 6]: 1.19
- Respiratory Rate [4, 6]: 249.0
- Respiratory Minute Volume [4, 6]: 304.5
- Expiratory Time ([4]; Day 15, Ninte. PO + Vehicle IV): 0.205 s
- Inspiratory Time ([4]; Day 15, Ninte. PO + Vehicle IV): 0.122 s
- Peak Expiratory Flow ([4]; Day 15, Ninte. PO + Vehicle IV): 16.5
- Peak Inspiratory Flow ([4]; Day 15, Ninte. PO + Vehicle IV): 19.0
- Tidal Volume ([4]; Day 15, Ninte. PO + Vehicle IV): 1.35
- Respiratory Rate ([4]; Day 15, Ninte. PO + Vehicle IV): 223.4
- Respiratory Minute Volume ([4]; Day 15, Ninte. PO + Vehicle IV): 309.5
- Expiratory Time ([4]; Day 21, Ninte. PO + Vehicle IV): 0.231 s
- Inspiratory Time ([4]; Day 21, Ninte. PO + Vehicle IV): 0.127 s
- Peak Expiratory Flow ([4]; Day 21, Ninte. PO + Vehicle IV): 13.9
- Peak Inspiratory Flow ([4]; Day 21, Ninte. PO + Vehicle IV): 18.1
- Tidal Volume ([4]; Day 21, Ninte. PO + Vehicle IV): 1.44
- Respiratory Rate ([4]; Day 21, Ninte. PO + Vehicle IV): 203.7
- Respiratory Minute Volume ([4]; Day 21, Ninte. PO + Vehicle IV): 286.0
- Survival rate ([5]; BLM-induced mice to Day 21, daily PO from Day 0: dexamethasone 0.25 mg/kg, Nintedanib 60 mg/kg): 92%
- Survival (number of animals surviving to study day) ([5]; Day 11): 12
- Survival (number of animals surviving to study day) ([5]; Day 12): 12
- Survival (number of animals surviving to study day) ([5]; Day 13): 12
- Survival (number of animals surviving to study day) ([5]; Day 14): 12
- Survival (number of animals surviving to study day) ([5]; Day 15): 12
- Survival (number of animals surviving to study day) ([5]; Day 16): 12
- Survival (number of animals surviving to study day) ([5]; Day 17): 12
- Survival (number of animals surviving to study day) ([5]; Day 18): 12
- Survival (number of animals surviving to study day) ([5]; Day 19): 12
- Survival (number of animals surviving to study day) ([5]; Day 20): 12
- Survival (number of animals surviving to study day) ([5]; Day 21): 11
